Series [1] has as its system AHR. Nature of the series: AHR activation in IEC-6 enterocytes (Cyp1a1 expression). The following applies: exposed to amniotic fluid, breast milk and serum harvested from pregnant mice administered I3C vs control diet. In kind it is cell-based, rat. As to the method:
The intestinal epithelial cells line IEC-6 (ATCC CRL-1592) was stably transduced with lentiviral particles containing Cignal Lenti XRE Reporter (luc) (Qiagen). Cells were treated serially with individual chemicals contained within the Johns Hopkins Drug Library (JHDL), which contains a series of FDA-approved drugs, Chong et al., 2006, (kindly provided by Dr. Jun O. Liu, Johns Hopkins University) at 10 μM for 24 hours, and the luciferase activity was quantified using the SpectraMax M3 (Molecular Devices).
(§1) Total RNA was isolated using the RNeasy mini kit (Qiagen) and complementary DNA was synthesized from 0.5 μg RNA using QuantiTect Reverse Transcription kit (Qiagen) following the manufacturer's protocols. The mRNA quantification was performed on the Bio-Rad CFX96 Real-Time System (Bio-Rad) using iTaq™ universal SYBR® Green supermix (Bio-Rad) and the primers listed in Table 1. The relative mRNA expression levels were normalized against the expression of the housekeeping gene ribosomal protein lateral stalk subunit P0 (Rplp0). For microRNA isolation, freshly harvested, snap-frozen ileal tissue was subjected to total RNA isolation using the RNeasy plus universal mini kit (Qiagen) and miRNA was quantified using miScript PCR starter kit (Qiagen) following the manufacturer's protocols. The relative miRNA expression levels were normalized against the expression of housekeeping miRNA miR-191.

Series [2] concerns AHR. Nature of the series: AHR activation in human ileal explant culture (Cyp1a1 qRT-PCR). Format: cell-based. The conditions noted are these: 200 μM I3C or 20 μM A18, 15 minutes pre-treatment then 6 hours.
From the text: De-identified human ileal samples were collected via waiver of consent from the Office of Human Subjects Research Review Boards at Johns Hopkins University (IRB00094036), during surgery for NEC or at the time of stoma closure. For RNA isolation and qRT-PCR analysis, fresh samples were snapfrozen in liquid nitrogen immediately. For human explant culture, fresh ileum samples from NEC patients or patient undergoing stoma re-anastomosis were washed with sterile phosphate-buffered saline containing gentamycin (5 μg/mL), minced into 2- to 4-mm diameter pieces, and then cultured in Dulbecco's modified Eagle growth medium supplemented with 10% fetal bovine serum, 4 μg/mL human recombinant insulin and 100 μg/mL Primocin. […]
as §1, with “The relative mRNA expression levels were normalized against the expression of the housekeeping gene ribosomal protein lateral stalk subunit P0 (Rplp0).” left out, “The relative miRNA expression levels were normalized against the expression of housekeeping miRNA miR-191.” left out
(In general: Real-time PCR tracks product formation cycle by cycle.)

Series [3] has as its system AHR. Nature of the series: AHR activation in mouse intestine in vivo (Cyp1a1 expression by qRT-PCR). The following applies: for expression of the AHR response gene Cyp1a1 in the small intestine: maternal diet with I3C throughout pregnancy, 25 mg/kg body weight/day. As to the method: Hits were validated for activation of AHR signaling by oral gavage into neonatal C57/B16 mice (p11), and measuring the expression of the AHR activation reporter Cyp1a1 by qRT-PCR in the intestinal mucosa 24 hours later. The lead compound from these studies is herein labelled “A18”. Additionally, the mice were subjected to hypoxia (5% 02-95% N2) for 10 min in a hypoxia chamber (Billups-Rothenberg) twice daily for 4 days. […] To test the protective effect of breast milk on AHR signaling a NEC, human breast milk (Innovative Research) was supplemented to the formula at the final concentration of 5%. Endotoxemia was induced in neonatal mouse pups (p11) by administering 5 mg/kg lipopolysaccharides (LPS) via intraperitoneal injection, and ileal samples were harvested 6 hours after LPS treatments. […] I3C and A18 were administered to the pregnant mother daily until the offspring were studied further for experimental NEC or endotoxemia as above. […] The mRNA quantification was performed on the Bio-Rad CFX96 Real-Time System (Bio-Rad) using iTaqTM universal SYBR® Green supermix (Bio-Rad) and the primers listed in Table 1. The relative mRNA expression levels were normalized against the expression of the housekeeping gene ribosomal protein lateral stalk subunit P0 (Rplp0). For microRNA isolation, freshly harvested, snap-frozen ileal tissue was subjected to total RNA isolation using the RNeasy plus universal mini kit (Qiagen) and miRNA was quantified using miScript PCR starter kit (Qiagen) following the manufacturer's protocols. The relative miRNA expression levels were normalized against the expression of housekeeping miRNA miR-191.

The structures appear in SMILES notation. “Also recorded” adds a separate entry of the source.

As for `OCc1c[nH]c2ccccc12` [I3C, indole-3-carbinol], the “Cyp1a1 expression in cultured IEC-6 enterocytes” value with AHR [1] is “significantly increased the expression of Cyp1a1”. Besides, in the series on AHR [2], the “Cyp1a1 expression in human intestinal explant cultures” value was “induced the expression of Cyp1a1”. Moreover, the “Cyp1a1 expression in the neonatal intestinal epithelium (ileum)” value is given as “induced the expression Cyp1a1; also recorded: moderate increase” in the series with AHR [3] (Ahr^Δlys mice, NEC model, I3C 25 mg/kg body weight/day for 4 days) and “induced the expression Cyp1a1; also recorded: multifold induction” in the series on AHR [3] (wildtype mice, NEC model, I3C 25 mg/kg body weight/day for 4 days). The “Cyp1a1 expression in the intestinal epithelium” value with AHR [3] (Ahr^−/− newborn mice, fed I3C 25 mg/kg/day or A18 300 mg/kg/day) is on record as “did not induce Cyp1a1”; in the series on AHR [3] (Il22^−/− mice, NEC model, I3C 25 mg/kg body weight/day for 4 days) it was “induced the expression of Cyp1a1”; in the series on AHR [3] (wild-type newborn (p11) mice, fed I3C 25 mg/kg/day or A18 300 mg/kg/day) it was “induced Cyp1a1 expression”. For the same molecule, the “expression of the AHR response gene Cyp1a1 in the small intestine” value in the series with AHR [3] (fetus at e17.5) and in the series on AHR [3] (pregnant mother) was “induced the expression of the AHR response gene Cyp1a1” throughout. The “Cyp1a1 expression in suckling pups” value in the series on AHR [3] (p11, I3C administered to the lactating mother) is “induced Cyp1a1 expression”.

Source of the values: patent US20230357261A1, “ARYL HYDROCARBON RECEPTOR LIGANDS AND THEIR ANALOGUES FOR THE PREVENTION AND TREATMENT OF INFLAMMATORY DISORDERS” (The Johns Hopkins University, priority 2020, published 2023).
